Measurements taken from patent US5210193A, “Piperazine derivatives” (American Cyanamid Company, priority 1990, dated 1993).
In brackets after ≈: the same amount, converted by molar mass. Where two headings read alike, the source gives them in different places.

What was measured:
Assay in all cases: in vitro antibacterial MIC, agar plate dilution
Format in all cases: cell-based
[1] = system: Morganella morganii CMC 84-37; settings: Morganella morganii, CMC8437, 18 h, 35° C., read-out: MIC
Method in brief: (§1)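 Agar plate dilution on Mueller-Hinton agar, inoculum approximately 10^4 CFU per organism applied with a Steers replicator. MIC (mcg/ml) is the lowest compound concentration inhibiting visible growth after 18 hours at 35° C.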

[2] = system: Morganella morganii MOR 84-45; settings: Morganella morganii, MOR8445, 18 h, 35° C., read-out: MIC
Method in brief: as §1

[3] = system: Enterobacter cloacae MOR 84-30; settings: Enterobacter cloacae, MOR8430, 18 h, 35° C., read-out: MIC
Method in brief: as §1

[4] = system: Escherichia coli CMC 84-11; settings: Escherichia coli, CMC8411, 18 h, 35° C., read-out: MIC
Method in brief: as §1

[5] = system: Enterobacter cloacae K 84-10; settings: Enterobacter cloacae, K8410, 18 h, 35° C., read-out: MIC
Method in brief: as §1

[6] = system: Enterobacter cloacae VGH 84-39; settings: Enterobacter cloacae, VGH8439, 18 h, 35° C., read-out: MIC
Method in brief: as §1

[7] = system: Serratia marcescens CMC 83-74; settings: Serratia marcescens, CMC8374, 18 h, 35° C., read-out: MIC
Method in brief: as §1

[8] = system: Morganella morganii VHG 84-12; settings: Morganella morganii, VHG8412, 18 h, Morganella morganii VHG 84-12 (VGH 84-12 for Example 131), 35° C., read-out: MIC
Method in brief: as §1

[9] = system: Staphylococcus aureus K 82-26; settings: Staphylococcus aureus, K8226, 18 h, 35° C., read-out: MIC
Method in brief: as §1

[10] = system: Proteus rettgeri IO 83-21; settings: Providencia rettgeri, IO8321, 18 h, 35° C., read-out: MIC
Method in brief: as §1

[11] = system: Streptococcus faecalis UCI 85-30; settings: Enterococcus faecalis, UCI8530, 18 h, 35° C., read-out: MIC
Method in brief: as §1

[12] = system: Klebsiella pneumoniae MOR 84-24; settings: Klebsiella pneumoniae, MOR8424, 18 h, 35° C., read-out: MIC
Method in brief: as §1

[13] = system: Pseudomonas aeruginosa VGH 84-3; settings: Pseudomonas aeruginosa, VGH843, 18 h, 35° C., read-out: MIC
Method in brief: as §1

[14] = system: Proteus rettgeri CMC 84-41; settings: Providencia rettgeri, CMC8441, 18 h, 35° C., read-out: MIC
Method in brief: as §1

[15] = system: Providencia stuarti CMC 83-3; settings: Providencia, CMC833, 18 h, 35° C., read-out: MIC
Method in brief: as §1

[16] = system: Pseudomonas aeruginosa K 84-16; settings: Pseudomonas aeruginosa, K8416, 18 h, 35° C., read-out: MIC
Method in brief: as §1

[17] = system: Staphylococcus aureus ATTC 29213; settings: 35° C.
Method in brief: as §1

[18] = system: Staphylococcus aureus VGH 84-45; settings: Staphylococcus aureus, VGH8445, 18 h, 35° C., read-out: MIC
Method in brief: as §1

[19] = system: Escherichia coli CMC 84-50; settings: Escherichia coli, CMC8450, 18 h, 35° C., read-out: MIC
Method in brief: as §1

[20] = system: Klebsiella pneumoniae CMC 84-31; settings: Klebsiella pneumoniae, CMC8431, 18 h, 35° C., read-out: MIC
Method in brief: as §1

[21] = system: Pseudomonas aeruginosa VGH 84-4; settings: Pseudomonas aeruginosa, VGH844, 18 h, 35° C., read-out: MIC
Method in brief: as §1

[22] = system: Serratia marcescens VGH 84-30; settings: Serratia marcescens, VGH8430, 18 h, 35° C., read-out: MIC
Method in brief: as §1

[23] = system: Escherichia coli VGH 84-19; settings: Escherichia coli, VGH8419, 18 h, 35° C., read-out: MIC
Method in brief: as §1

[24] = system: Escherichia coli LL 311; settings: Escherichia coli, LL311, 18 h, 35° C., read-out: MIC
Method in brief: as §1

[25] = system: Serratia marcescens MOR 84-41; settings: Serratia marcescens, MOR8441, 18 h, 35° C., read-out: MIC
Method in brief: as §1

[26] = system: Serratia marcescens K 84-18; settings: Serratia marcescens, K8418, 18 h, 35° C., read-out: MIC
Method in brief: as §1

[27] = system: Streptococcus faecalis UCI 85-19; settings: Enterococcus faecalis, UCI8519, 18 h, 35° C., read-out: MIC
Method in brief: as §1

[28] = system: Streptococcus faecalis CMC 83-120; settings: Enterococcus faecalis, CMC83120, 18 h, 35° C., read-out: MIC
Method in brief: as §1

[29] = system: Pseudomonas aeruginosa CMC 83-20; settings: Pseudomonas aeruginosa, CMC8320, 18 h, 35° C., read-out: MIC
Method in brief: as §1

[30] = system: Staphylococcus aureus VGH 84-47; settings: Staphylococcus aureus, VGH8447, 18 h, 35° C., read-out: MIC
Method in brief: as §1

[31] = system: Streptococcus faecalis VGH 84-69; settings: Enterococcus faecalis, VGH8469, 18 h, 35° C., read-out: MIC
Method in brief: as §1

[32] = Staphylococcus aureus, ATTC29213, 18 h, read-out: MIC

Row | Compound | MIC [2] [µg/mL] | MIC [3] [µg/mL] | MIC [4] [µg/mL] | MIC [5] [µg/mL] | MIC [6] [µg/mL] | MIC [7] [µg/mL] | MIC [8] [µg/mL] | MIC [9] [µg/mL] | MIC [10] [µg/mL] | MIC [11] [µg/mL] | MIC [12] [µg/mL] | MIC [13] [µg/mL] | MIC [14] [µg/mL] | MIC [15] [µg/mL] | MIC [16] [µg/mL] | MIC [18] [µg/mL] | MIC [19] [µg/mL] | MIC [20] [µg/mL] | MIC [21] [µg/mL] | MIC [22] [µg/mL] | also measured
1 | O=C(O)c1cn(C2CC2)c2cc(N3CCNC(c4ccoc4)C3)c(F)cc2c1=O (stereo not drawn) [Example 92] | 0.12 (≈ 0.302 µM) | 1 (≈ 2.52 µM) | 0.03 (≈ 0.0755 µM) | 0.06 (≈ 0.151 µM) | 0.12 (≈ 0.302 µM) | 8 (≈ 20.1 µM) | 0.25 (≈ 0.629 µM) | 0.12 (≈ 0.302 µM) | 0.5 (≈ 1.26 µM) | 1 (≈ 2.52 µM) | 0.25 (≈ 0.629 µM) | 16 (≈ 40.3 µM) | 0.12 (≈ 0.302 µM) | 8 (≈ 20.1 µM) | 4 (≈ 10.1 µM) | 0.03 (≈ 0.0755 µM) | 0.12 (≈ 0.302 µM) | 0.12 (≈ 0.302 µM) | 2 (≈ 5.03 µM) | 4 (≈ 10.1 µM) | MIC [1]: 0.06 µg/mL (≈ 0.151 µM); MIC ([17]; 18 hours): 0.12 µg/mL (≈ 0.302 µM); MIC [17, 32]: 0.06 µg/mL (≈ 0.151 µM); MIC [23]: 0.06 µg/mL (≈ 0.151 µM); MIC [24]: 0.03 µg/mL (≈ 0.0755 µM); MIC [25]: 0.25 µg/mL (≈ 0.629 µM); MIC [26]: 0.25 µg/mL (≈ 0.629 µM); MIC [27]: 1 µg/mL (≈ 2.52 µM); MIC [28]: 1 µg/mL (≈ 2.52 µM); MIC [29]: 4 µg/mL (≈ 10.1 µM); MIC [30]: 0.12 µg/mL (≈ 0.302 µM); MIC [31]: 1 µg/mL (≈ 2.52 µM)
2 | CCn1cc(C(=O)O)c(=O)c2cc(F)c(N3CCNC(c4ccoc4)C3)cc21 (stereo not drawn) [Example 94, 1-Ethyl-6-fluoro-1,4-dihydro-4-oxo-7-[3-(3-furanyl)-1-piperazinyl]-3-quinolinecarboxylic acid] | 0.12 (≈ 0.311 µM) | 4 (≈ 10.4 µM) | 0.12 (≈ 0.311 µM) | 0.25 (≈ 0.649 µM) | 0.5 (≈ 1.3 µM) | 16 (≈ 41.5 µM) | 1 (≈ 2.59 µM) | 0.25 (≈ 0.649 µM) | 1 (≈ 2.59 µM) | 4 (≈ 10.4 µM) | 1 (≈ 2.59 µM) | > 16 | 0.25 (≈ 0.649 µM) | 16 (≈ 41.5 µM) | 16 (≈ 41.5 µM) | 0.12 (≈ 0.311 µM) | 0.25 (≈ 0.649 µM) | 0.5 (≈ 1.3 µM) | 4 (≈ 10.4 µM) | 8 (≈ 20.8 µM) | MIC [1]: 0.12 µg/mL (≈ 0.311 µM); MIC [23]: 0.25 µg/mL (≈ 0.649 µM); MIC [24]: 0.12 µg/mL (≈ 0.311 µM); MIC [25]: 0.5 µg/mL (≈ 1.3 µM); MIC [26]: 0.5 µg/mL (≈ 1.3 µM); MIC [27]: 4 µg/mL (≈ 10.4 µM); MIC [28]: 4 µg/mL (≈ 10.4 µM); MIC [29]: 8 µg/mL (≈ 20.8 µM); MIC [30]: 0.25 µg/mL (≈ 0.649 µM); MIC [31]: 2 µg/mL (≈ 5.19 µM)
3 | CCn1cc(C(=O)O)c(=O)c2cc(F)c(N3CCN(C)C(c4ccn(C)n4)C3)cc21 (stereo not drawn) [Example 109, 1-Ethyl-6-fluoro-1,4-dihydro-7-[4-methyl-3-(1-methyl-1H-pyrazol-3-yl) -1-piperazinyl]-4-oxo-3-quinolinecarboxylic acid] | > 16 | > 16 | 16 (≈ 38.7 µM) | 16 (≈ 38.7 µM) | > 16 | > 16 | > 16 | > 16 | > 16 | > 16 | > 16 | > 16 | 32 (≈ 77.4 µM) | > 16 | > 16 | 0.5 (≈ 1.21 µM) | > 16 | > 16 | > 128 | > 128 | MIC ([17]; 18 hours): 1 µg/mL (≈ 2.42 µM); MIC [17, 32]: 0.5 µg/mL (≈ 1.21 µM); MIC [23]: > 16 µg/mL; MIC [24]: 8 µg/mL (≈ 19.3 µM); MIC [25]: > 16 µg/mL; MIC [26]: 32 µg/mL (≈ 77.4 µM); MIC [27]: 16 µg/mL (≈ 38.7 µM); MIC [28]: > 16 µg/mL; MIC [29]: > 16 µg/mL; MIC [30]: 2 µg/mL (≈ 4.84 µM); MIC [31]: > 16 µg/mL
